Legend:
Assay in all cases: Test B flooded paddy test
Assay type in all cases: in vivo
[1] = tested on: barnyardgrass (Echinochloa crus-galli); details: Echinochloa crus-galli, Flood, scale 0 to 100, read-out: Plant response rating, Barnyardgrass; for pest or weed control at 125 g/ha: 125 g ai/ha; for pest or weed control at 500 g/ha: 500 g ai/ha
How it was run: (§1)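 Plants were grown to the 2-leaf stage before treatment, then kept in a greenhouse for 13 to 15 days. Injury was rated visually against untreated controls on a 0 to 100 scale, where 0 is no effect and 100 is complete control.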

[2] = tested on: duck salad (Heteranthera limosa); details: Heteranthera limosa, Flood, scale 0 to 100, read-out: Plant response rating, Ducksalad; for pest or weed control at 125 g/ha: 125 g ai/ha; for pest or weed control at 500 g/ha: 500 g ai/ha
How it was run: as §1

rice (Oryza sativa) = details: Oryza sativa, Flood, scale 0 to 100, read-out: Plant response rating, Rice; for plant injury at 125 g/ha: 125 g ai/ha; for plant injury at 500 g/ha: 500 g ai/ha
How it was run: as §1

[3] = tested on: umbrella sedge (Cyperus difformis); details: Cyperus difformis, Flood, scale 0 to 100, read-out: Plant response rating, Sedge, Umbrella; for pest or weed control at 125 g/ha: 125 g ai/ha; for pest or weed control at 500 g/ha: 500 g ai/ha
How it was run: as §1

Row | Compound | pest or weed control at 125 g/ha [1] | pest or weed control at 500 g/ha [1] | pest or weed control at 125 g/ha [2] | pest or weed control at 500 g/ha [2] | plant injury at 125 g/ha (rice (Oryza sativa)) | plant injury at 500 g/ha (rice (Oryza sativa)) | pest or weed control at 125 g/ha [3] | pest or weed control at 500 g/ha [3] | pest or weed control at 62 g/ha ([1]; 62 g ai/ha) | pest or weed control at 250 g/ha ([1]; 250 g ai/ha) | pest or weed control at 62 g/ha ([2]; 62 g ai/ha) | pest or weed control at 250 g/ha ([2]; 250 g ai/ha) | plant injury at 62 g/ha (rice (Oryza sativa); 62 g ai/ha) | plant injury at 250 g/ha (rice (Oryza sativa); 250 g ai/ha) | pest or weed control at 62 g/ha ([3]; 62 g ai/ha) | pest or weed control at 250 g/ha ([3]; 250 g ai/ha)
1 | COC(=O)c1nc(-c2ccc(Br)cc2)nc(N)c1Cl [Compound 96, methyl 6-amino-2-(4-bromophenyl)-5-chloro-4-pyrimidinecarboxylate] | 0% | 10% | 100% | 100% | 0% | 0% | 90% | 90% |  |  |  |  |  |  |  | 
2 | CCOC(=O)c1nc(-c2ccc(Cl)cc2)nc(N)c1Cl [Compound 64, ethyl 6-amino-5-chloro-2-(4-chlorophenyl)-4-pyrimidinecarboxylate] | 0% | 0% | 90% | 100% | 0% | 0% | 0% | 90% | 0% | 0% | 80% | 100% | 0% | 0% | 0% | 70%

Source: US8802597B2, “Herbicidal pyrimidines” (E I du Pont de Nemours and Company, priority 2003, dated 2014)
